Like-named read-outs stand apart in the source and are kept apart here.
Experiments:
[1] = system: 2-phenyl-1,4-benzoquinone induced writhing in mice; experiment: Phenylquinone Induced Writhing in Mice (2-phenyl-1,4-benzoquinone, analgesia); type: in vivo, mouse; settings: for ED50: Mus musculus, sc, read-out: ED50, inhibition of phenylquinone induced writhing; for Percent Inhibition of phenylquinone induced writhing: at 20 mg/kg
[2] = system: adjuvant-induced polyarthritis in rats; experiment: Adjuvant-Induced Polyarthritis In Rats; type: in vivo, rat (male Charles River-Wistar Lewis); settings: rat, p.o.; for percent inhibition of paw volume, adjuvant-treated paw / percent inhibition of paw volume, non-injected paw: at 50 mg/kg; for ED50: po
Protocol: This activity was measured by a procedure similar to that described by C.
Groups of 10 male Charles River-Wistar Lewis rats weighing 150 to 175 g were individually housed and maintained on a regular rat chow diet. Water was given ad libitum. The adjuvant was prepared by suspending 75 mg of Mycobacterium butyricum (Difco Laboratories, Detroit, Mich.) in 10 ml of white paraffin oil with continuous stirring for 2 hours at room temperature prior to administration. Test compounds are prepared by suspending the drug in water, adding one drop of Tween 80 per 10 ml of suspension, and homogenizing. The adjuvant suspension (0.1 ml) was injected into the footpad of the left hind paw of the rat. Test compound suspensions were administered orally (10 ml/kg) the day before adjuvant suspension injection and the administration was continued for 21 days. One group of ten rats was used for the test drug. Standard, adjuvant-injected control and non-injected control groups are run along with the test drug. Control animals received vehicle (10 ml/kg). Three doses of test drug and one dose of standard preparation were used. Injected and non-injected paw volumes were determined on the day the adjuvant suspension was given, and on subsequent days thereafter (usually days 5, 10, 18, and 21) by the method of C. A. Winter, et al., Proc. Soc.
The percent inhibition of paw volume (injected and non-injected hind paw) was calculated by the following formula: [formula]

[3] = system: carrageenan-induced rat paw edema; experiment: Inhibition of Carrageenan-Induced Rat Paw Edema; type: in vivo; settings: for Percent Inhibition of carrageenan-induced rat paw edema: at 100 mg/kg, p.o.; for ED50: po
[4] = adjuvant-treated (injected) paw
[5] = adjuvant-treated (injected) paw, read-out: ED50 (50% inhibition of paw volume), adjuvant-treated paw
[6] = non-injected paw, read-out: ED50 (50% inhibition of paw volume), non-injected paw

Row | Structure (SMILES) | Percent Inhibition of phenylquinone induced writhing ([1]; mice, s.c.) [%] | Percent Inhibition of carrageenan-induced rat paw edema [3] [%] | ED50 [2, 5] [mg/kg] | ED50 [2, 6] [mg/kg] | further results
1 | CCC(=O)O[C@](Cc1ccccc1)(c1ccccc1)[C@H](C)CN(C)C [Propoxyphene, reference compound] |  |  |  |  | ED50 [1]: 3.9 mg/kg
2 | CN1CCC(C2Nc3ccccc3N3CCCc4cccc2c43)CC1 (stereo not shown) [7-(1-Methyl-4-piperidinyl)-2,3,7,8-tetrahydro-1H-quino[1,8-ab][1,5]benzodiazepine hemifumarate hemihydrate] | 27 | 21 |  |  | percent inhibition of paw volume, adjuvant-treated paw [2, 4]: 39%; percent inhibition of paw volume, non-injected paw ([2]; non-injected paw): 79%
3 | CCO.CN1CCC(C2Nc3ccccc3N3CCc4cccc2c43)CC1.O=C(O)/C=C/C(=O)O (stereo not shown) [6-(1-Methylpiperidin-4-yl)-1,2,6,7-tetrahydrobenzo[b]pyrrolo[3,2,1-jk][1,4]benzodiazepine fumarate ethanolate] | 51 |  | 73.6 | 18.5 | ED50 [3]: 41.5 mg/kg
4 | CN1CCC(C2c3cccc4c3N(CC4)c3ccccc3N2C=O)CC1.O=CO (stereo not shown) [7-Formyl-6-(1-methylpiperidin-4-yl)-1,2,6,7-tetrahydrobenzo[b]pyrrolo[3,2,1-jk][1,4]benzodiazepine formate] |  |  |  |  | ED50 ([1]; mice, s.c.): 0.9 mg/kg
5 | CN1CCC(C2c3cccc4c3N(CC4)c3ccccc3N2C(=O)OCC(Cl)(Cl)Cl)CC1 (stereo not shown) [6-(1-Methylpiperidin-4-yl)-1,2,6,7-tetrahydrobenzo[b]pyrrolo[3,2,1-jk][1,4]benzodiazepine-7-carboxylic acid, 2,2,2-trichloroethyl ester] |  | 44 |  |  | 
6 | CN1CCC(C2c3cccc4c3N(CC4)c3ccccc3N2C)CC1 (stereo not shown) [7-Methyl-6-(1-methylpiperidin-4-yl)-1,2,6,7-tetrahydrobenzo[b]pyrrolo[3,2,1-jk][1,4]benzodiazepine] |  |  |  |  | ED50 ([1]; mice, s.c.): 2.6 mg/kg
7 | CN1CCC(C2Nc3cc(F)ccc3N3CCc4cccc2c43)CC1 (stereo not shown) [9-Fluoro-6-(1-methylpiperidin-4-yl)-1,2,6,7-tetrahydrobenzo[b]pyrrolo[3,2,1-jk][1,4]benzodiazepine] | 35 |  |  |  | percent inhibition of paw volume, adjuvant-treated paw [2, 4]: 48%; percent inhibition of paw volume, non-injected paw ([2]; non-injected paw): 116%
8 | CCCCC1C(=O)N(c2ccccc2)N(c2ccccc2)C1=O [Phenylbutazone, reference compound] |  |  | 14 | 9.4 | ED50 [3]: 50 mg/kg
9 | CCO.CN1CCC(C2Nc3ccccc3N3CCc4cc(Br)cc2c43)CC1 (stereo not shown) [4-Bromo-6-(1-methylpiperidin-4-yl)-1,2,6,7-tetrahydrobenzo[b]pyrrolo[3,2,1-jk][1,4]benzodiazepine ethanolate] | 47 |  |  |  | 
10 | CN1CCC(C2Nc3cc(Br)ccc3N3CCc4cccc2c43)CC1 (stereo not shown) [9-Bromo-6-(1-methylpiperidin-4-yl)-1,2,6,7-tetrahydrobenzo[b]pyrrolo[3,2,1-jk][1,4]benzodiazepine] |  | 40 | 112 | 3.6 | 

Reference: patent US4840947A, “Antiinflammatory and analgesic piperidin-4-yl-tetracyclic benzodiazepines and use thereas” (Hoechst-Roussel Pharmaceuticals, Inc., priority 1986, dated 1989)
